Earlier results on 1 substance are cited in patent US11278564B2, “Brain function-improving agent, food, and medicine using lipopolysaccharide” (Control of Innate Immunity Technology Research Association, priority 2017, dated 2022).

For this data set the following is noted: intraperitoneal injection (NPL 5).

Regarding monophosphoryl lipid A [MPL], the Aβ intracerebral deposition result is on record as “Aβ intracerebral deposition suppressing action” and the learning function entry was “learning function-improving action”.
